Measured values as given in ChEMBL document CHEMBL6109069 (J Med Chem, 2025).
pIC50, pKi: −log10 of the molar value. The source made the active and inactive calls. No cut-off for these calls is given here. Non-standard residues stand in square brackets, D forms with d. Residues, ends and D or L forms follow the SMILES beside them. *: point of attachment. Hexenoyl(2E,4S-Me) = CC[C@H](C)/C=C/C(=O)*; Leu(3R-OH) = CC(C)[C@@H](O)[C@H](N)C(=O)O; NH((S)CH(Me)CH2NMe2) = C[C@@H](CN(C)C)N*; NH(2-morpholinoethyl) = C(CN1CCOCC1)N*; Pro(4S-Me) = C[C@@H]1CN[C@H](C(=O)O)C1; NH(1-CH2NMe2-cBu) = CN(C)CC1(N*)CCC1; Gly(octyl) = CCCCCCCC[C@H](N)C(=O)O; Oxazole4CO(2-Me) = Cc1nc(C(=O)*)co1; Benzoyl(4-F) = O=C(c1ccc(F)cc1)*; hCha = N[C@@H](CCC1CCCCC1)C(=O)O; Tle = CC(C)(C)[C@H](N)C(=O)O; NHCH2CH2NMe2 = CN(C)CCN*; Nle = CCCC[C@H](N)C(=O)O; Hexanoyl = CCCCCC(=O)*; Aib = CC(C)(N)C(=O)O; X2 = CN(CCN*)CC(F)F; βAla = NCCC(=O)O; tBu = CC(C)(C)*

Assays:
[1] = Inhibition of Bovine heart ATP synthase assessed as inhibition constant by Michaelis-Menten plot analysis; set-up: species or system Bos taurus; settings: for pKi: read-out: Ki
[2] = Cytotoxicity against rat L6 cells assessed as cell viability incubated for 72 hrs by CCK-8 assay
Fibroblast [3] = assay: Reduction in respiration rate in human Fibroblast cells assessed as decrease in coupling efficiency at > 200 nM incubated up to 60 mins; type: functional, cell-based
[4] = tested on: Trypanosoma brucei rhodesiense; assay: Antitrypanosomal activity against Trypanosoma brucei rhodesiense STIB 900 incubated for 72 hrs by resazurin staining based analysis; type: functional, organism-based; settings: STIB 900, 72 h
Trypanosoma cruzi = assay: Antitrypanosomal activity against Trypanosoma cruzi Tulahuen C4 incubated for 4 days; type: functional, organism-based; settings: Tulahuen C4, 96 h
Plasmodium falciparum = assay: Antiplasmodial activity against Plasmodium falciparum NF54 incubated for 48 hrs; type: functional, organism-based; settings: NF54, 48 h
Fibroblast [5] = assay: Reduction in respiration rate in human Fibroblast cells assessed as decrease in coupling efficiency at 50 nM incubated up to 60 mins; type: functional, cell-based
Leishmania donovani = assay: Antitrypanosomal activity against Leishmania donovani MHOM/ET/67/L82 incubated for 72 hrs by resazurin staining based analysis; type: functional, organism-based; settings: MHOM/ET/67/L82, 72 h
[6] = tested on: Trypanosoma brucei rhodesiense; assay: Antitrypanosomal activity against Trypanosoma brucei rhodesiense STIB 900; type: functional, organism-based
Lipid bilayer = assay: Disruption of membrane integrity in bacterial cell membrane mimic POPC/POPG LUVs assessed as calcein leakage at 500 nM measured for 1 mins by fluorescence spectroscopy analysis
[7] = Cytotoxicity against rat L6 cells assessed as cell viability; type: toxicity, cell-based

SMILES: CC(C)C[C@H](NC(=O)[C@H](CCC1CCCCC1)NC(=O)[C@@H]1C[C@H](C)CN1C(=O)c1ccc(F)cc1)C(=O)NC(C)(C)C(=O)N[C@@H](CC(C)C)C(=O)N[C@@H](CC(C)C)C(=O)NC(C)(C)C(=O)NC(C)(C)C(=O)NCCC(=O)N[C@@H](C)CN(C)C ({Benzoyl(4-F)}-[Pro(4S-Me)][hCha]L[Aib]LL[Aib][Aib][βAla]-{NH((S)CH(Me)CH2NMe2)})
- pKi [1]: 7.08
- IC50 at 72 h [2]: 266 nM
- Activity (Fibroblast [3]): Active
- pIC50 [4]: 9.52
- pIC50 (Trypanosoma cruzi): 8.41
- pIC50 (Plasmodium falciparum): 8.89
- Activity (Fibroblast [5]): Active
- pIC50 (Leishmania donovani): 9.47

SMILES: CCCCCCCC[C@H](NC(=O)[C@@H]1C[C@H](C)CN1C(=O)/C=C/[C@@H](C)CC)C(=O)N[C@H](C(=O)NC(C)(C)C(=O)N[C@@H](CC(C)C)C(=O)N[C@@H](CC(C)C)C(=O)NC(C)(C)C(=O)NC(C)(C)C(=O)NCCC(=O)N[C@@H](C)CN(C)C)[C@H](O)C(C)C ({Hexenoyl(2E,4S-Me)}-[Pro(4S-Me)][Gly(octyl)][Leu(3R-OH)][Aib]LL[Aib][Aib][βAla]-{NH((S)CH(Me)CH2NMe2)})
- pKi [1]: 7.28
- IC50 at 72 h [2]: 77 nM
- pIC50 [4]: 9.47
- pIC50 (Trypanosoma cruzi): 7.62
- pIC50 (Plasmodium falciparum): 9.47
- pIC50 (Leishmania donovani): 9.16

SMILES: CC(C)C[C@H](NC(=O)[C@H](CCC1CCCCC1)NC(=O)[C@@H]1CCCN1C(=O)c1ccc(F)cc1)C(=O)NC(C)(C)C(=O)N[C@@H](CC(C)C)C(=O)N[C@@H](CC(C)C)C(=O)NC(C)(C)C(=O)NC(C)(C)C(=O)NCCC(=O)NCCN(C)CC(F)F ({Benzoyl(4-F)}-P[hCha]L[Aib]LL[Aib][Aib][βAla]-X2)
- pKi [1]: 6.30
- pIC50 [6]: 6.41
- Activity (Lipid bilayer): Active

SMILES: CC[C@H](C)/C=C/C(=O)N1CCC[C@H]1C(=O)N[C@@H](CCC1CCCCC1)C(=O)N[C@H](C(=O)NC(C)(C)C(=O)N[C@@H](CC(C)C)C(=O)N[C@@H](CC(C)C)C(=O)NC(C)(C)C(=O)NC(C)(C)C(=O)NCCC(=O)N[C@@H](C)CN(C)C)[C@H](O)C(C)C ({Hexenoyl(2E,4S-Me)}-P[hCha][Leu(3R-OH)][Aib]LL[Aib][Aib][βAla]-{NH((S)CH(Me)CH2NMe2)})
- pKi [1]: 7.54
- IC50 at 72 h [2]: 208 nM
- pIC50 [4]: 9.25
- pIC50 (Trypanosoma cruzi): 6.74
- pIC50 (Plasmodium falciparum): 9.28
- pIC50 (Leishmania donovani): 9.28

SMILES: CCCCCC(=O)N1CCC[C@H]1C(=O)N[C@@H](CCC1CCCCC1)C(=O)N[C@@H](CC(C)C)C(=O)NC(C)(C)C(=O)N[C@@H](CC(C)C)C(=O)N[C@@H](CC(C)C)C(=O)NC(C)(C)C(=O)NC(C)(C)C(=O)NCCC(=O)N[C@@H](C)CN(C)C (Hexanoyl-P[hCha]L[Aib]LL[Aib][Aib][βAla]-{NH((S)CH(Me)CH2NMe2)})
- pKi [1]: 6.86

SMILES: CC(C)C[C@H](NC(=O)[C@H](CC(C)C)NC(=O)C(C)(C)NC(=O)[C@@H](NC(=O)[C@H](CCC1CCCCC1)NC(=O)[C@@H]1CCCN1C(=O)c1ccc(F)cc1)[C@H](O)C(C)C)C(=O)NC(C)(C)C(=O)NC(C)(C)C(=O)NCCC(=O)N[C@@H](C)CN(C)C ({Benzoyl(4-F)}-P[hCha][Leu(3R-OH)][Aib]LL[Aib][Aib][βAla]-{NH((S)CH(Me)CH2NMe2)})
- pKi [1]: 6.87
- IC50 at 72 h [2]: 1230 nM
- pIC50 [4]: 8.89
- pIC50 (Trypanosoma cruzi): 5.95
- pIC50 (Plasmodium falciparum): 8.52
- pIC50 (Leishmania donovani): 8.17

SMILES: Cc1nc(C(=O)N2CCC[C@H]2C(=O)N[C@H](C(=O)N[C@@H](CC(C)C)C(=O)NC(C)(C)C(=O)N[C@@H](CC(C)C)C(=O)N[C@@H](CC(C)C)C(=O)NC(C)(C)C(=O)NC(C)(C)C(=O)NCCC(=O)NC2(CN(C)C)CCC2)C(C)(C)C)co1 ({Oxazole4CO(2-Me)}-P[Tle]L[Aib]LL[Aib][Aib][βAla]-{NH(1-CH2NMe2-cBu)})
- pKi [1]: 4.79
- pIC50 [7]: < 5.05
- pIC50 (Trypanosoma cruzi): 5.19
- pIC50 [6]: 8.39
- pIC50 (Plasmodium falciparum): 6.67
- pIC50 (Leishmania donovani): 5.92

SMILES: CC[C@H](C)/C=C/C(=O)N1C[C@@H](C)C[C@H]1C(=O)N[C@@H](CCC1CCCCC1)C(=O)N[C@@H](CC(C)C)C(=O)NC(C)(C)C(=O)N[C@@H](CC(C)C)C(=O)N[C@@H](CC(C)C)C(=O)NC(C)(C)C(=O)NC(C)(C)C(=O)NCCC(=O)N[C@@H](C)CN(C)C ({Hexenoyl(2E,4S-Me)}-[Pro(4S-Me)][hCha]L[Aib]LL[Aib][Aib][βAla]-{NH((S)CH(Me)CH2NMe2)})
- pKi [1]: 6.97
- IC50 at 72 h [2]: 157 nM
- Activity (Fibroblast [3]): Active
- pIC50 [4]: 9.59
- pIC50 (Trypanosoma cruzi): 7.37
- pIC50 (Plasmodium falciparum): 9.16
- pIC50 (Leishmania donovani): 8.89

SMILES: Cc1nc(C(=O)N2CCC[C@H]2C(=O)N[C@@H](COC(C)(C)C)C(=O)N[C@@H](CC(C)C)C(=O)NC(C)(C)C(=O)N[C@@H](CC(C)C)C(=O)N[C@@H](CC(C)C)C(=O)NC(C)(C)C(=O)NC(C)(C)C(=O)NCCC(=O)NC2(CN(C)C)CCC2)co1 ({Oxazole4CO(2-Me)}-PS(tBu)L[Aib]LL[Aib][Aib][βAla]-{NH(1-CH2NMe2-cBu)})
- pKi [1]: 4.74
- pIC50 [7]: < 5.06
- pIC50 (Trypanosoma cruzi): 5.19
- pIC50 [6]: 8.41
- pIC50 (Plasmodium falciparum): 6.57
- pIC50 (Leishmania donovani): 6.78

SMILES: CCCC[C@H](NC(=O)[C@@H]1CCCN1C(=O)c1coc(C)n1)C(=O)N[C@@H](CC(C)C)C(=O)NC(C)(C)C(=O)N[C@@H](CC(C)C)C(=O)N[C@@H](CC(C)C)C(=O)NC(C)(C)C(=O)NC(C)(C)C(=O)NCCC(=O)NC1(CN(C)C)CCC1 ({Oxazole4CO(2-Me)}-P[Nle]L[Aib]LL[Aib][Aib][βAla]-{NH(1-CH2NMe2-cBu)})
- pIC50 [7]: < 5.06
- pIC50 (Trypanosoma cruzi): 5.23
- pIC50 [6]: 8.19
- pIC50 (Plasmodium falciparum): 6.93
- pIC50 (Leishmania donovani): 5.82

SMILES: CC(C)C[C@H](NC(=O)[C@H](CCC1CCCCC1)NC(=O)[C@@H]1CCCN1C(=O)c1ccc(F)cc1)C(=O)NC(C)(C)C(=O)N[C@@H](CC(C)C)C(=O)N[C@@H](CC(C)C)C(=O)NC(C)(C)C(=O)NC(C)(C)C(=O)NCCC(=O)NCCN1CCOCC1 ({Benzoyl(4-F)}-P[hCha]L[Aib]LL[Aib][Aib][βAla]-{NH(2-morpholinoethyl)})
- pKi [1]: 6.15
- pIC50 [6]: 7.14

SMILES: Cc1nc(C(=O)N2CCC[C@H]2C(=O)N[C@@H](Cc2c[nH]c3ccccc23)C(=O)N[C@@H](CC(C)C)C(=O)NC(C)(C)C(=O)N[C@@H](CC(C)C)C(=O)N[C@@H](CC(C)C)C(=O)NC(C)(C)C(=O)NC(C)(C)C(=O)NCCC(=O)NC2(CN(C)C)CCC2)co1 ({Oxazole4CO(2-Me)}-PWL[Aib]LL[Aib][Aib][βAla]-{NH(1-CH2NMe2-cBu)})
- pIC50 (Trypanosoma cruzi): 5.57
- pIC50 [6]: 8.89
- pIC50 (Plasmodium falciparum): 7.74
- pIC50 (Leishmania donovani): 7.51

SMILES: CC(C)C[C@H](NC(=O)[C@H](CCC1CCCCC1)NC(=O)[C@@H]1CCCN1C(=O)c1ccc(F)cc1)C(=O)NC(C)(C)C(=O)N[C@@H](CC(C)C)C(=O)N[C@@H](CC(C)C)C(=O)NC(C)(C)C(=O)NC(C)(C)C(=O)NCCC(=O)NCCN(C)C ({Benzoyl(4-F)}-P[hCha]L[Aib]LL[Aib][Aib][βAla]-NHCH2CH2NMe2)
- pKi [1]: 6.34
- pIC50 [6]: 8.41
- Activity (Lipid bilayer): Active

SMILES: Cc1nc(C(=O)N2CCC[C@H]2C(=O)N[C@@H](CCC2CCCCC2)C(=O)N[C@@H](CC(C)C)C(=O)NC(C)(C)C(=O)N[C@@H](CC(C)C)C(=O)N[C@@H](CC(C)C)C(=O)NC(C)(C)C(=O)NC(C)(C)C(=O)NCCC(=O)NC2(CN(C)C)CCC2)co1 ({Oxazole4CO(2-Me)}-P[hCha]L[Aib]LL[Aib][Aib][βAla]-{NH(1-CH2NMe2-cBu)})
- pIC50 (Trypanosoma cruzi): 6.71
- pIC50 [6]: 9.12
- pIC50 (Plasmodium falciparum): 8.32
- pIC50 (Leishmania donovani): 7.96

SMILES: CC(C)C[C@H](NC(=O)[C@H](CC(C)C)NC(=O)C(C)(C)NC(=O)[C@@H](NC(=O)[C@H](CCC1CCCCC1)NC(=O)[C@@H]1C[C@H](C)CN1C(=O)c1ccc(F)cc1)[C@H](O)C(C)C)C(=O)NC(C)(C)C(=O)NC(C)(C)C(=O)NCCC(=O)N[C@@H](C)CN(C)C ({Benzoyl(4-F)}-[Pro(4S-Me)][hCha][Leu(3R-OH)][Aib]LL[Aib][Aib][βAla]-{NH((S)CH(Me)CH2NMe2)})
- pKi [1]: 7.26
- IC50 at 72 h [2]: 1340 nM
- Activity (Fibroblast [3]): Active
- pIC50 [4]: 9.20
- pIC50 (Trypanosoma cruzi): 6.37
- pIC50 (Plasmodium falciparum): 8.47
- Activity (Fibroblast [5]): Active
- pIC50 (Leishmania donovani): 8.00

SMILES: N#CC(C#N)=NNc1ccc(OC(F)(F)F)cc1
- Ki [1]: Not_determined
